These compounds were tested against T1, Human CB1 (Homo sapiens (Human), UniProt P21554) (assay: Human CB1 HEK293 membrane [35S]GTPγS binding assay). Conditions: HEK293 membranes expressing human CB1; in presence of CP55,940; mean ± SEM; read-out: Human CB1 HEK293 membrane [35S]GTPγS binding assay pIC50 ± SEM (converted).
Type: biochemical
Procedure: Non-specific binding was determined by adding 30 μM unlabeled GTPγS.
(§1) Data Analysis: For calcium mobilization experiments, data were fit to a three-parameter logistic curve to generate IC50 values (GraphPad Prism 6.0, Graphpad Software, San Diego, California, United States of America). For [^35S]GTPγS experiments, data were normalized to maximal CP55,940 (100 nM) stimulation in the absence of test compound (i.e., vehicle=100%).

T1 sequence (P21554 whole entry): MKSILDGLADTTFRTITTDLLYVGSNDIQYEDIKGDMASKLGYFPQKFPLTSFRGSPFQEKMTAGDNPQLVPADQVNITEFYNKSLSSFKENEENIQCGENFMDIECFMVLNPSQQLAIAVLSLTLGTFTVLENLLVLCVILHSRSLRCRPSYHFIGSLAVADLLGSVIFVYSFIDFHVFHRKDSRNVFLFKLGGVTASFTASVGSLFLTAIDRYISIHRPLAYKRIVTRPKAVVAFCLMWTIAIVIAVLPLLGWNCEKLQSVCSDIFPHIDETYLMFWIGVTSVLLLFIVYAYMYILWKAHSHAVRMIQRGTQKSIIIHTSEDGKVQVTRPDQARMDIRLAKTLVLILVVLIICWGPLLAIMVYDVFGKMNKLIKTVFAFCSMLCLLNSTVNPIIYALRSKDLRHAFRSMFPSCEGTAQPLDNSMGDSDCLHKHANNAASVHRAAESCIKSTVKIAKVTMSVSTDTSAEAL

Row | IC50 [nM] | Structure (SMILES)
1 | 776 | O=c1c(NCCc2ccccc2)c(Nc2ccc(Cl)cc2)c1=O [Compound 11, 3-[(4-Chlorophenyl)amino]-4-[(2-phenylethyl)amino]cyclobut-3-ene-1,2-dione]
2 | 398 | N#Cc1ccc(Nc2c(NCCc3cccc(Cl)c3)c(=O)c2=O)cc1 [Compound 28, 4-[(2-{[2-(3-Chlorophenyl)ethyl]amino}-3,4-dioxocyclobut-1-en-1-yl)amino]benzonitrile]

What follows are compounds tested against T1, Human CB1 (assay: Calcium mobilization assay (antagonist mode vs CP55,940)). Conditions: CHO-RD-HGA16 cells stably expressing human CB1; against EC50 concentration of CP55,940; mean ± SEM, at least three experiments.
Type: cell-based
Procedure: Calcium Mobilization Assay: CHO-RD-HGA16 cells (Molecular Devices, San Jose, California, United States of America) stably expressing the human CB1 receptor were plated into 96-well black-walled assay plates at 25,000 cells/well in 100 μL of Ham's F12 (supplemented with 10% fetal bovine serum, 100 units of penicillin/streptomycin, and 100 μg/mL Normocin) and incubated overnight at 37° C., 5% CO2. Calcium 5 dye (Molecular Devices, San Jose, California, United States of America) was reconstituted according to the manufacturer's instructions. The reconstituted dye was diluted 1:40 in prewarmed (37° C.) assay buffer (lx HBSS, 20 mM HEPES, 2.5 mM probenecid, pH 7.4 at 37° C.). Growth medium was removed, and the cells were gently washed with 100 μL of prewarmed (37° C.) assay buffer. […] After the pretreatment incubation period, the plate was read with a FLIPR Tetra (Molecular Devices, San Jose, California, United States of America). […] Relative fluorescence units (RFU) were plotted against the log of compound concentrations. […] Test compound RFUs were compared to the CP55,940 Emax RFUs to generate % Emax values. For the CB2 agonist and antagonist assays, the same procedures were followed except that stable human CB2—CHO-RD-HGA16 cells were used.
as §1

Row | Structure (SMILES) | IC50 [nM]
3 | O=c1c(NCCc2ccccc2Cl)c(Nc2ccc(Cl)cc2)c1=O [Compound 23, 3-[(4-Chlorophenyl)amino]-4-{[2-(2-chlorophenyl)ethyl]amino}cyclobut-3-ene-1,2-dione] | 1290 ± 201
4 | O=c1c(NCCc2ccccc2C(F)(F)F)c(Nc2ccc(Cl)cc2)c1=O [Compound 19, 3-[(4-Chlorophenyl)amino]-4-({2-[2-(trifluoromethyl)phenyl]ethyl}amino)cyclobut-3-ene-1,2-dione] | 933
5 | Cc1cccc(CCNc2c(Nc3ccc(Cl)cc3)c(=O)c2=O)c1 [Compound 14, 3-[(4-Chlorophenyl)amino]-4-{[2-(3-methylphenyl)ethyl]amino}cyclobut-3-ene-1,2-dione] | 205 ± 41
6 | O=c1c(NCCc2cccc(F)c2)c(Nc2ccc(Cl)cc2)c1=O [Compound 25, 3-[(4-Chlorophenyl)amino]-4-{[2-(3-fluorophenyl)ethyl]amino}cyclobut-3-ene-1,2-dione] | 286 ± 28
7 | O=c1c(NCCc2ccc(C(F)(F)F)cc2)c(Nc2ccc(Cl)cc2)c1=O [Compound 21, 3-[(4-Chlorophenyl)amino]-4-({2-[4-(trifluoromethyl)phenyl]ethyl}amino)cyclobut-3-ene-1,2-dione] | 275 ± 13
8 | O=c1c(NCCc2ccc(Cl)cc2)c(Nc2ccc(Cl)cc2)c1=O [Compound 13, 3-[(4-Chlorophenyl)amino]-4-{[2-(4-chlorophenyl)ethyl]amino}cyclobut-3-ene-1,2-dione] | 222 ± 35
9 | Cc1ccc(CCNc2c(Nc3ccc(Cl)cc3)c(=O)c2=O)cc1 [Compound 15, 3-[(4-Chlorophenyl)amino]-4-{[2-(4-methylphenyl)ethyl]amino}cyclobut-3-ene-1,2-dione] | 164 ± 30
10 | COc1cccc(CCNc2c(Nc3ccc(Cl)cc3)c(=O)c2=O)c1 [Compound 17, 3-[(4-Chlorophenyl)amino]-4-{[2-(3-methoxyphenyl)ethyl]amino}cyclobut-3-ene-1,2-dione] | 350 ± 39
11 | O=c1c(NCCc2cccc(C(F)(F)F)c2)c(Nc2ccc(Cl)cc2)c1=O [Compound 20, 3-[(4-Chlorophenyl)amino]-4-({2-[3-(trifluoromethyl)phenyl]ethyl}amino)cyclobut-3-ene-1,2-dione] | 360 ± 65
12 | O=c1c(NCCc2ccccc2)c(Nc2ccc(Cl)cc2)c1=O [Compound 11, 3-[(4-Chlorophenyl)amino]-4-[(2-phenylethyl)amino]cyclobut-3-ene-1,2-dione] | 210 ± 39
13 | Cc1ccccc1CCNc1c(Nc2ccc(Cl)cc2)c(=O)c1=O [Compound 35, 3-[(4-Chlorophenyl)amino]-4-{[2-(2-methylphenyl)ethyl]amino}cyclobut-3-ene-1,2-dione] | 353 ± 37
14 | O=c1c(NCCCc2ccccc2)c(Nc2ccc(Cl)cc2)c1=O [Compound 12, 3-[(4-Chlorophenyl)amino]-4-[(3-phenylpropyl)amino]cyclobut-3-ene-1,2-dione] | 1040 ± 359
15 | CN(C)c1cccc(CCNc2c(Nc3ccc(Cl)cc3)c(=O)c2=O)c1 [Compound 26, 3-[(4-Chlorophenyl)amino]-4-({2-[3-(dimethylamino)phenyl]ethyl}amino)cyclobut-3-ene-1,2-dione] | 2100 ± 272
16 | O=c1c(NCCc2ccc(Cl)cc2Cl)c(Nc2ccc(Cl)cc2)c1=O [Compound 44, 3-[(4-Chlorophenyl)amino]-4-{[2-(2,4-dichlorophenyl)ethyl]amino}cyclobut-3-ene-1,2-dione] | 1140 ± 183
17 | O=c1c(NCCc2ccccc2F)c(Nc2ccc(Cl)cc2)c1=O [Compound 24, 3-[(4-Chlorophenyl)amino]-4-{[2-(2-fluorophenyl)ethyl]amino}cyclobut-3-ene-1,2-dione] | 274 ± 33
18 | O=c1c(NCCc2ccc(F)cc2)c(Nc2ccc(Cl)cc2)c1=O [Compound 22, 3-[(4-Chlorophenyl)amino]-4-{[2-(4-fluorophenyl)ethyl]amino}cyclobut-3-ene-1,2-dione] | 337 ± 21
19 | COc1ccccc1CCNc1c(Nc2ccc(Cl)cc2)c(=O)c1=O [Compound 16, 3-[(4-Chlorophenyl)amino]-4-{[2-(2-methoxyphenyl)ethyl]amino}cyclobut-3-ene-1,2-dione] | 1110 ± 88
20 | COc1ccc(CCNc2c(Nc3ccc(Cl)cc3)c(=O)c2=O)cc1 [Compound 18, 3-[(4-Chlorophenyl)amino]-4-{[2-(4-methoxyphenyl)ethyl]amino}cyclobut-3-ene-1,2-dione] | 734 ± 310
21 | CN(C)c1ccc(CCNc2c(Nc3ccc(Cl)cc3)c(=O)c2=O)cc1 [Compound 27, 3-[(4-Chlorophenyl)amino]-4-({2-[4-(dimethylamino)phenyl]ethyl}amino)cyclobut-3-ene-1,2-dione] | 535 ± 135

Further lines, results first:

Row | IC50 [nM] | Structure (SMILES)
22 | 408 ± 94 | O=c1c(Nc2ccc(Cl)cc2)c(Nc2cccc(-c3ccccc3)c2)c1=O [Compound 29, 3-(Biphenyl-3-ylamino)-4-[(4-chlorophenyl)amino]cyclobut-3-ene-1,2-dione]
23 | 399 ± 22 | O=c1c(NCCc2cccs2)c(Nc2ccc(Cl)cc2)c1=O [Compound 39, 3-[(4-Chlorophenyl)amino]-4-{[2-(thiophen-2-yl)ethyl]amino}cyclobut-3-ene-1,2-dione]
24 | 1480 ± 297 | O=c1c(Nc2ccc(Cl)cc2)c(Nc2ccc(-c3ccccc3)cc2)c1=O [Compound 34, 3-(Biphenyl-4-ylamino)-4-[(4-chlorophenyl)amino]cyclobut-3-ene-1,2-dione]
25 | 639 ± 247 | CCN(CC)c1ccc(CCNc2c(Nc3ccc(Cl)cc3)c(=O)c2=O)cc1 [Compound 48, 3-[(4-Chlorophenyl)amino]-4-({2-[4-(diethylamino)phenyl]ethyl}amino)cyclobut-3-ene-1,2-dione]
26 | > 10000 | O=c1c(NCCc2ccc(N3CCCCC3)cc2)c(Nc2ccc(Cl)cc2)c1=O [Compound 49, 3-[(4-Chlorophenyl)amino]-4-{[2-(4-piperidin-1-ylphenyl)ethyl]amino}cyclobut-3-ene-1,2-dione]
27 | 408 ± 66 | Cc1ccc(CCNc2c(Nc3ccc(Cl)cc3)c(=O)c2=O)cc1C [Compound 42, 3-[(4-Chlorophenyl)amino]-4-{[2-(3,4-dimethylphenyl)ethyl]amino}cyclobut-3-ene-1,2-dione]
28 | > 10000 | O=c1c(NCCc2ccc(N3CCCC3)cc2)c(Nc2ccc(Cl)cc2)c1=O [Compound 50, 3-[(4-Chlorophenyl)amino]-4-{[2-(4-pyrrolidin-1-ylphenyl)ethyl]amino}cyclobut-3-ene-1,2-dione]
29 | > 10000 | O=c1c(NCCc2ccncc2)c(Nc2ccc(Cl)cc2)c1=O [Compound 37, 3-[(4-Chlorophenyl)amino]-4-{[2-(pyridin-4-yl)ethyl]amino}cyclobut-3-ene-1,2-dione]
30 | > 10000 | O=c1c(NCCN2CCCCC2)c(Nc2ccc(Cl)cc2)c1=O [Compound 45, 3-[(4-Chlorophenyl)amino]-4-{[2-(piperidin-1-yl)ethyl]amino}cyclobut-3-ene-1,2-dione]
31 | 877 ± 31 | O=c1c(NCCc2ccc(Cl)c(Cl)c2)c(Nc2ccc(Cl)cc2)c1=O [Compound 41, 3-[(4-Chlorophenyl)amino]-4-{[2-(3,4-dichlorophenyl)ethyl]amino}cyclobut-3-ene-1,2-dione]
32 | 463 ± 56 | O=c1c(Nc2ccc(Cl)cc2)c(Nc2cccc(-c3ccsc3)c2)c1=O [Compound 32, 3-[(4-Chlorophenyl)amino]-4-{[3-(thiophen-3-yl)phenyl]amino}cyclobut-3-ene-1,2-dione]
33 | > 10000 | O=c1c(NCCc2ccc(N3CCC3)cc2)c(Nc2ccc(Cl)cc2)c1=O [Compound 51, 3-{[2-(4-Azetidin-1-ylphenyl)ethyl]amino}-4-[(4-chlorophenyl)amino]cyclobut-3-ene-1,2-dione]
34 | 154 ± 14 | O=c1c(Nc2ccc(Cl)cc2)c(Nc2cccc(-c3cscn3)c2)c1=O [Compound 31, 3-[(4-Chlorophenyl)amino]-4-{[3-(1,3-thiazol-4-yl)phenyl]amino}cyclobut-3-ene-1,2-dione]
35 | 2070 ± 204 | O=c1c(NCCc2cccc(O)c2)c(Nc2ccc(Cl)cc2)c1=O [Compound 43, 3-[(4-Chlorophenyl)amino]-4-{[2-(3-hydroxyphenyl)ethyl]amino}cyclobut-3-ene-1,2-dione]
36 | 958 ± 60 | O=c1c(NCCc2ccccn2)c(Nc2ccc(Cl)cc2)c1=O [Compound 36, 3-[(4-Chlorophenyl)amino]-4-{[2-(pyridin-2-yl)ethyl]amino}cyclobut-3-ene-1,2-dione]
37 | 333 ± 7 | O=c1c(NCCc2ccc(Br)cc2)c(Nc2ccc(Cl)cc2)c1=O [Compound 38, 3-[(4-Chlorophenyl)amino]-4-{[2-(4-bromophenyl)ethyl]amino}cyclobut-3-ene-1,2-dione]
38 | 460 ± 66 | N#Cc1ccc(Nc2c(NCCc3cccc(Cl)c3)c(=O)c2=O)cc1 [Compound 28, 4-[(2-{[2-(3-Chlorophenyl)ethyl]amino}-3,4-dioxocyclobut-1-en-1-yl)amino]benzonitrile]

Source: patent publication US20260062376A1, “SQUARAMIDE DERIVATIVES AS CB1 ALLOSTERIC MODULATORS” (RESEARCH TRIANGLE INSTITUTE, priority 2022, published 2026)
